As usually defined, the IC50 is the midpoint of a concentration-inhibition curve.

The experiment has as its system AsPC-1 cells. In words: phospho-ERK HTRF assay in AsPC-1 cells, 4 h treatment. It is filed as cell-based. Conditions: Homo sapiens, ASPC1. A general note: In TR-FRET formats the signal depends on donor and acceptor labels being close together.
[1] abbreviates: AsPC-1, 4H, Table 1a class column, read-out: pERK IC50 activity range (*).
Setting [2] is: AsPC-1, 4H, Table 1a, read-out: PERK IC50 (AsPC-1, 4H).
[3] abbreviates: AsPC-1, 4h, Table 1b, read-out: PERK IC50 (AsPC-1, 4h).

Like-named read-outs stand apart in the source and are kept apart here. A value given as a limit tells only on which side of the number the result lay.

For `Cc1cc(N)cc(C2Cc3nc(OC[C@@]45CCCN4C[C@H](F)C5)nc(N4CCCn5nc(C(=O)N(C)C)c(Cl)c5C4)c3CO2)c1C(F)(F)F` (stereo partly shown) [compound 239], the IC50 is 10 to 30 nM under setting [1] and 12.8 nM under setting [2]. Consider `CC#Cc1cc(N)cc([C@@H]2Cc3nc(OC[C@@]45CCCN4C/C(=C\F)C5)nc(N4CCCn5nc(C(=O)N(C)C)c(Cl)c5C4)c3CO2)c1C(F)(F)F` [compound 427], for which the IC50 under setting [3] is less than 10 nM. Turning to `CN(C)C(=O)c1nn2c(c1Cl)CN(c1nc(OC[C@@]34CCCN3CC(=C(F)F)C4)nc3c1CO[C@H](c1cc(N)ccc1C(F)(F)F)C3)CCC2` [compound 244], the IC50 reads like this: under setting [1], 10 to 30 nM; under setting [2], 22.2 nM. Regarding `CON(C)C(=O)c1nn2c(c1Cl)CN(c1nc(OC[C@@]34CCCN3C[C@H](F)C4)nc3c1COC(c1c(F)c(N)cc(C)c1C(F)(F)F)C3)CCC2` (stereo partly drawn) [compound 464, 5-(2-{[(2R,7aS)-2-fluoro-hexahydropyrrolizin-7a-yl]methoxy}-7-[3-amino-2-fluoro-5-methyl-6-(trifluoromethyl)phenyl]-5H,7H,8H-pyrano[4,3-d]pyrimidin-4-yl)-3-chloro-N-methoxy-N-methyl-4H,6H,7H,8H-pyrazolo[1,5-a][1,4]diazepine-2-carboxamide], the IC50 under setting [1] lay in the range of 10 to 30 nM. `Cc1c(C(=O)N(C)C)nn2c1CN(c1nc(OC[C@@]34CCCN3C[C@H](F)C4)nc3c1CO[C@H](c1c(F)c(N)cc(Cl)c1C(F)(F)F)C3)CCC2` [compound 441]: under setting [3], the IC50 was less than 10 nM. On the same count and under the same terms, under `CN(C)C(=O)c1nn2c(c1Cl)CN(c1nc(OC[C@]34CCCN3C[C@@H](C=C(F)F)C4)nc3c1CO[C@H](c1c(F)c(N)cc(Cl)c1C(F)(F)F)C3)CCC2` [compound 459] stands less than 10 nM. On the same count and under the same terms, under `CON(C)C(=O)c1nn2c(c1Cl)CN(c1nc(OC[C@@]34CCCN3C/C(=C\F)C4)nc3c1COC(c1cc(N)cc(Cl)c1C(F)(F)F)C3)CCC2` (stereo partly shown) [compound 449] stands less than 10 nM. As to `Cc1cc(N)cc(C2Cc3nc(OC[C@@]45CCCN4CC(=C(F)F)C5)nc(N4CCCn5nc(C(=O)N(C)C)c(Cl)c5C4)c3CO2)c1C(F)(F)F` (stereo partly shown) [compound 241], the half-maximal inhibitory concentration (IC50) under setting [1] fell in the range of 31 to 100 nM and the IC50 under setting [2] turned out to be 58.9 nM. For `Cc1cc(N)c(F)c([C@H]2Cc3nc(OC[C@@]45CCCN4C[C@H](F)C5)nc(N4CCCn5nc(C(=O)N(C)C)c(Cl)c5C4)c3CO2)c1C(F)(F)F` [215b], in that order: 101 to 500 nM and 132 nM. As to `Cc1cc(N)cc([C@@H]2Cc3nc(OC[C@@]45CCCN4C/C(=C\F)C5)nc(N4CCCn5nc(C(=O)N6CCC6)cc5C4)c3CO2)c1C(F)(F)F` [compound 403], under setting [1], the IC50 lay in the range of 10 to 30 nM. Take `CN(C)C(=O)c1cc2n(n1)CCCN(c1nc(OC[C@@]34CCCN3C/C(=C\F)C4)nc3c1CO[C@H](c1cc(N)cc(Cl)c1C(F)(F)F)C3)C2` [compound 301, 5-((S)-7-(5-amino-3-chloro-2-(trifluoromethyl)phenyl)-2-(((S,Z)-2-(fluoromethylene)tetrahydro-1H-pyrrolizin-7a(5H)-yl)methoxy)-7,8-dihydro-5H-pyrano[4,3-d]pyrimidin-4-yl)-N,N-dimethyl-5,6,7,8-tetrahydro-4H-pyrazolo[1,5-a][1,4]diazepine-2-carboxamide]: the IC50 under setting [3] was less than 10 nM. Same read-out and setting: under `CN(C)C(=O)c1nn2c(c1Cl)CN(c1nc(OC[C@@]34CCCN3C[C@H](F)C4)nc3c1CO[C@H](c1cc(N)cc(Cl)c1C(F)(F)F)C3)CCC2` [compound 234, 5-((S)-7-(5-amino-3-chloro-2-(trifluoromethyl)phenyl)-2-(((2R,7aS)-2-fluorotetrahydro-1H-pyrrolizin-7a(5H)-yl)methoxy)-7,8-dihydro-5H-pyrano[4,3-d]pyrimidin-4-yl)-3-chloro-N,N-dimethyl-5,6,7,8-tetrahydro-4H-pyrazolo[1,5-a][1,4]diazepine-2-carboxamide] stands less than 10 nM.

The values are drawn from patent publication US20260224589A1 (priority 2023, published 2026).
